# Results published in patent US20220324865A1 (Bayer Aktiengesellschaft, priority 2018, published 2022).
# Structures can show the parent of a compound that is named as a salt.
# Target: T1, human EP3 receptor (Homo sapiens, UniProt P43115)
# T1 construct: expressed in transfected cells; host or cells: CHO K1 (Chinese Hamster Ovary), stably co-transfected with Galpha16 and mitochondrial clytin
# T1 sequence (P43115 1-390): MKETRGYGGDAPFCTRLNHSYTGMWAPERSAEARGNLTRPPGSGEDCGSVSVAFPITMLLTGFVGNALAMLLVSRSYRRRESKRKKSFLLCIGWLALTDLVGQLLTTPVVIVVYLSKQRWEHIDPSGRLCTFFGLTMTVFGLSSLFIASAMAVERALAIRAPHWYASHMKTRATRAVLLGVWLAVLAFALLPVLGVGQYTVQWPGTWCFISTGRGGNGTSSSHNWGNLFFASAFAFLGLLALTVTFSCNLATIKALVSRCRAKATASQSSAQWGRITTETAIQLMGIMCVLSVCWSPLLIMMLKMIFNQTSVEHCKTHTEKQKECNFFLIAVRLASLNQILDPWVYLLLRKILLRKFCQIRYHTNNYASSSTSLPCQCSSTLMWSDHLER
# Assay: Cellular in vitro assay for determining EP3 receptor activity (human EP3 cell line, sulprostone-stimulated calcium luminescence)
# Assay type: cell-based
# Conditions: CHO cells expressing human EP3 and mitochondrial Clytin; antagonist mode, sulprostone at EC50; read-out: EP3 CHO mtCLY ANTAG IC50
# Procedure, shortened: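 CHO K1 cells stably expressing human EP3 with Gα16 and mitochondrial Clytin, loaded overnight with coelenterazine. Compounds added 10 min before sulprostone at its EC50; antagonism read immediately as reduced calcium-driven luminescence, quadruplicate points.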
row,IC50 [nM],Structure (SMILES)
1,23.5,"CCN1CCC(NC(=O)c2nn3cc(-c4ccc(C)c(F)c4)[nH]c(=O)c3c2C2CC2)(C(F)(F)F)C1 (single isomer, unassigned) [6-406]"
2,2.15,"Cc1cccc2ncc(-c3cn4nc(C(=O)N[C@@H](C)c5cnccn5)c(C(C)C)c4c(=O)[nH]3)cc12 [Example 4-28, 6-(5-Methylquinolin-3-yl)-4-oxo-3-(propan-2-yl)-N-[(7S)-1-(pyrazin-2-yl)ethyl]-4,5-dihydropyrazolo[1,5-a]pyrazine-2-carboxamide]"
3,1.65,"COC(=O)N1CC(NC(=O)c2cc3c(=O)[nH]c(-c4ccc(C)c(C)c4)cn3n2)(c2ccc(OC)cc2)C1 [Example 1-66, Methyl 3-({[6-(3,4-dimethylphenyl)-4-oxo-4,5-dihydropyrazolo[1,5-a]pyrazin-2-yl]carbonyl}amino)-3-(4-methoxyphenyl)azetidine-1-carboxylate]"
4,1,Cc1cc(-c2cn3nc(C(=O)N[C@@H](C)C4CC4)c(C4CCC4)c3c(=O)[nH]2)ccc1Cl [6-618]
5,2.5,"Cc1cccc2ncc(-c3cn4nc(C(=O)NCc5cc[nH]n5)c(C(C)C)c4c(=O)[nH]3)cc12 [Example 4-14, 6-(5-Methylquinolin-3-yl)-4-oxo-3-(propan-2-yl)-N-[(1H-pyrazol-3-yl)methyl]-4,5-dihydropyrazolo[1,5-a]pyrazine-2-carboxamide]"
6,1.65,"Cc1cccc2ncc(-c3cn4nc(C(=O)NC5CCS(=O)(=O)C5)c(C(C)C)c4c(=O)[nH]3)cc12 (stereo not drawn) [Example 4-12, N-(1,1-Dioxothiolan-3-yl)-3-isopropyl-6-(5-methyl-3-quinolyl)-4-oxo-5H-pyrazolo[1,5-a]pyrazine-2-carboxamide]"
7,3.65,COc1ccc([C@@H](NC(=O)c2nn3cc(-c4ccc(C)c(F)c4)[nH]c(=O)c3c2C2CC2)C(F)(F)CO)cn1 [6-400]
8,5.45,"CC(NC(=O)c1nn2cc(-c3ccc4ccccc4c3)[nH]c(=O)c2c1C#N)c1cccc(Br)c1 (stereo not drawn) [Example 3-47, N-[1-(3-Bromophenyl)ethyl]-3-cyano-6-(2-naphthyl)-4-oxo-5H-pyrazolo[1,5-a]pyrazine-2-carboxamide]"
9,0.93,COc1ccc([C@@H](C)NC(=O)c2nn3cc(-c4ccc(Cl)c(F)c4)[nH]c(=O)c3c2C2CC2)cn1 [6-87]
10,1.75,"Cc1cccc2ncc(-c3cn4nc(C(=O)Nc5ccnn5C)c(C(C)C)c4c(=O)[nH]3)cc12 [Example 4-19, N-(1-Methyl-1H-pyrazol-5-yl)-6-(5-methylquinolin-3-yl)-4-oxo-3-(propan-2-yl)-4,5-dihydropyrazolo[1,5-a]pyrazine-2-carboxamide]"
11,0.88,"O=C(N[C@H](CCO)c1ccc(F)cc1)c1cc2c(=O)[nH]c(-c3ccc4c(c3)CCC4)cn2n1 [Example 1-97, 6-(2,3-Dihydro-1H-inden-5-yl)-N-[(1R)-1-(4-fluorophenyl)-3-hydroxpropyl]-4-oxo-4,5-dihydropyrazolo[1,5-a]pyrazine-2-carboxamide]"
12,3.4,CC[C@@H](C)NC(=O)c1nn2cc(-c3ccc(C)c(C)c3)[nH]c(=O)c2c1C(F)(F)F [6-113]
13,1.2,"Cc1ccc(-c2cn3nc(C(=O)N[C@H](C)c4ccc(F)cc4)c(C4CC4)c3c(=O)[nH]2)cc1C [Example 1-84, 3-Cyclopropyl-6-(3,4-dimethylphenyl)-N-[(1R)-1-(4-fluorophenyl)ethyl]-4-oxo-4,5-dihydropyrazolo[1,5-a]pyrazine-2-carboxamide]"
14,3.73,Cc1ccc(-c2cn3nc(C(=O)N[C@@H](c4ccccc4)[C@@H](O)CO)cc3c(=O)[nH]2)cc1C [6-353]
15,4.85,Cc1ccc(-c2cn3nc(C(=O)NC(CNC(=O)OC(C)(C)C)c4ccc(F)cc4)cc3c(=O)[nH]2)cc1C (stereo not drawn) [6-42]
16,2.25,"CCN(CCO)CC(NC(=O)c1cc2c(=O)[nH]c(-c3ccc4ccccc4c3)cn2n1)c1ccccc1 (stereo not drawn) [Example 1-27, N-[2-[Ethyl(2-hydroxyethyl)amino]-1-phenylethyl]-6-(2-naphthyl)-4-oxo-5H-pyrazolo[1,5-a]-pyrazine-2-carboxamide]"
17,1.5,Cc1cc(-c2cn3nc(C(=O)N[C@@H](c4ccc(F)cc4)C(C)(C)O)c(C4CCC4)c3c(=O)[nH]2)ccc1Cl [6-620]
18,1.75,"CCn1nccc1C(C)NC(=O)c1nn2c(C)c(-c3ccc4ccccc4c3)[nH]c(=O)c2c1C (stereo not drawn) [Example 3-12, N-[1-(1-Ethyl-1H-pyrazol-5-yl)ethyl]-3,7-dimethyl-6-(2-naphthyl)-4-oxo-4,5-dihydropyrazolo[1,5-a]pyrazine-2-carboxamide]"
19,9.3,CCn1nccc1CNC(=O)c1nn2c(C)c(-c3ccc(C)c(C)c3)[nH]c(=O)c2c1C(F)(F)F [6-13]
20,1.07,Cc1cc(-c2cn3nc(C(=O)NC4(c5ccccc5)CCOCC4)c(C4CC4)c3c(=O)[nH]2)ccc1Cl [6-342]

row,IC50 [nM],Structure (SMILES)
1,1.55,"Cc1ccc(-c2cn3nc(C(=O)NC(C)C4CCC4)c(C(F)(F)F)c3c(=O)[nH]2)cc1Cl (single isomer, unassigned) [6-195]"
2,5.97,"CN(C)C[C@@H](NC(=O)c1cc2c(=O)[nH]c(-c3ccc4c(c3F)OCCO4)cn2n1)c1ccccc1 [Example 1-109, N-[(1S)-2-(Dimethylamino)-1-phenylethyl]-6-(5-fluoro-2,3-dihydro-1,4-benzodioxin-6-yl)-4-oxo-4,5-dihydropyrazolo[1,5-a]pyrazine-2-carboxamide]"
3,5.8,"O=C(NC(CO)C(F)(F)F)c1nn2cc(-c3ccc(Cl)c(F)c3)[nH]c(=O)c2c1C1CC1 (single isomer, unassigned) [6-94]"
4,1.38,"CC(NC(=O)c1nn2cc(-c3ccc4ccccc4c3)[nH]c(=O)c2c1C(F)(F)F)c1cnc(OCC(F)(F)F)cn1 (stereo not drawn) [Example 1-117, 6-(2-Naphthyl)-4-oxo-N-[1-[5-(2,2,2-trifluoroethoxy)pyrazin-2-yl]ethyl]-3-(trifluoromethyl)-5H-pyrazolo[1,5-a]pyrazine-2-carboxamide]"
5,2.3,Cc1ccc(-c2cn3nc(C(=O)NC(CO)C(F)(F)F)c(C(F)(F)F)c3c(=O)[nH]2)cc1Cl (racemic) [6-161]
6,3.15,Cc1ccc(-c2cn3nc(C(=O)N[C@H](C)C(C)C)c(C(F)(F)F)c3c(=O)[nH]2)cc1C [6-114]
7,3,COC[C@H](C)NC(=O)c1nn2cc(-c3ccc4ccccc4c3)[nH]c(=O)c2c1C(F)(F)F [6-515]
8,1.7,"Cc1ccc(-c2cn3nc(C(=O)N[C@H](C)c4ccc(C(F)(F)F)cc4)cc3c(=O)[nH]2)cc1C [Example 1-15, 6-(3,4-Dimethylphenyl)-4-oxo-N-{(1R)-1-[4-(trifluoromethyl)phenyl]ethyl}-4,5-dihydropyrazolo-[1,5-a]pyrazine-2-carboxamide]"
9,3.9,"COc1ccc([C@H](CCO)NC(=O)c2nn3cc(-c4ccc5ccccc5c4)[nH]c(=O)c3c2C#N)cc1 [Example 3-63, 3-Cyano-N-[(1S)-3-hydroxy-1-(4-methoxyphenyl)propyl]-6-(naphthalen-2-yl)-4-oxo-4,5-dihydropyrazolo[1,5-a]pyrazine-2-carboxamide]"
10,6.05,"Cc1c(C(=O)NC2(c3ccccc3)CCOCC2)nn2c(C)c(-c3ccc4ccccc4c3)[nH]c(=O)c12 [Example 3-34, 3,7-Dimethyl-6-(2-naphthyl)-4-oxo-N-(4-phenyltetrahydro-2H-pyran-4-yl)-4,5-dihydropyrazolo[1,5-a]pyrazine-2-carboxamide]"
11,1.85,CC(C)(O)[C@@H](NC(=O)c1nn2cc(-c3ccc(Cl)c(OC(F)(F)F)c3)[nH]c(=O)c2c1C1CC1)c1ccc(F)cc1 [6-592]
12,0.14,"Cc1ccc(-c2cn3nc(C(=O)N[C@H](CCO)c4ccccc4)cc3c(=O)[nH]2)cc1C [Example 1-14, 6-(3,4-Dimethylphenyl)-N-[(1R)-3-hydroxy-1-phenylpropyl]-4-oxo-4,5-dihydropyrazolo[1,5-a]-pyrazine-2-carboxamide]"
13,1.2,Cc1ccc(-c2cn3nc(C(=O)N[C@H](C)c4ccc(F)cc4)cc3c(=O)[nH]2)cc1C [6-36]
14,1,"Cc1cc(-c2cn3nc(C(=O)NC(c4ccc(F)cc4)C4(O)CC4)c(C4CC4)c3c(=O)[nH]2)ccc1F (single isomer, unassigned) [6-651]"
15,6.85,"CC[C@@H](C)NC(=O)c1nn2cc(-c3ccc(C(F)(F)F)c(C)c3)[nH]c(=O)c2c1C1CC1 [Example 1-138, N-[(2R)-Butan-2-yl]-3-cyclopropyl-6-[3-methyl-4-(trifluoromethyl)phenyl]-4-oxo-4,5-dihydropyrazolo[1,5-a]pyrazine-2-carboxamide]"
16,4.18,"Cc1c(C(=O)NC2(c3ccc(F)cc3)CN(C)C2)nn2cc(-c3ccc4ccccc4c3)[nH]c(=O)c12 [Example 1-34, N-[3-(4-Fluorophenyl)-1-methylazetidin-3-yl]-3-methyl-6-(naphthalen-2-yl)-4-oxo-4,5-dihydropyrazolo[1,5-a]pyrazine-2-carboxamide formic acid salt]"
17,0.49,O=C(NC(c1ccc(F)cc1)C1(O)CC1)c1nn2cc(-c3ccc(Cl)c(F)c3)[nH]c(=O)c2c1C1CC1 (racemic) [6-96]
18,1.05,Cc1ccc(-c2cn3nc(C(=O)N[C@@H](c4ccc(F)cc4)C(C)(C)O)c(C4CC4)c3c(=O)[nH]2)cc1C [6-440]
19,1.43,Cc1ccc(-c2cn3nc(C(=O)N[C@@H](c4ccc(F)cc4)C(F)(F)CO)c(C)c3c(=O)[nH]2)cc1F [6-412]
